Tests used:
[1] = Anomeric stability in D2O solution followed by 1H-NMR; type: physicochemical; settings: 10 mg in 700 μL D2O, room temperature; 1H-NMR recorded immediately and a day later
Method: 10 mg pure α-lactosamine hydrochloride was dissolved in 700 μL D2O, then 1H-NMR spectrum was recorded immediately. A second 1H-NMR spectra was recorded a day later, by which time the clean substance had already anomerized. On first spectrum (FIG. 3, above) at 5.26 ppm the H-1 and at 4.29 ppm the H-1′ can be seen. On the second spectrum (FIG. 3, below) next to the alpha anomer already the beta appears. At 4.78 ppm H-1-beta and at 2.85 ppm H-2-beta can be seen.

| SMILES | melting point [°C] | anomerization of the pure alpha anomer in solution (appearance of beta anomer) [1] |
| --- | --- | --- |
| Cl.N[C@@H]1[C@@H](O)[C@H](O[C@@H]2O[C@H](CO)[C@H](O)[C@H](O)[C@H]2O)[C@@H](CO)O[C@@H]1O (hydrate or solvate) [α-lactosamine hydrochloride] | 174 |  |
| Cl.N[C@@H]1[C@@H](O)[C@H](O[C@@H]2O[C@H](CO)[C@H](O)[C@H](O)[C@H]2O)[C@@H](CO)O[C@@H]1O [α-lactosamine hydrochloride] |  | anomerizes at room temperature within one day |
